The values that follow are results of earlier work, collected in patent US20180125772A1, “Oral Care Compositions” (Colgate-Palmolive Company, priority 2016, published 2018).

For the data set the following is noted: aqueous solution, pH of no net charge.

On to `NCCCC[C@H](N)C(=O)O` [lysine], for which the isoelectric point was 9.7 pH.
